Key:
Assay type in all cases: cell-based
[1] = test system: NEK4
[2] = test system: PLK1
[3] = test system: PI4KB
[4] = test system: PKCa, PKCb; assay: KiNativ kinase profiling in A375 cells; conditions: Lys2, SEQ ID NO 153, 1.0 μM
[5] = test system: Wnk1, Wnk2; assay: KiNativ kinase profiling in A375 cells; conditions: ATP Loop, SEQ ID NO 193, 1.0 μM
[6] = test system: IKKe
[7] = test system: CDC2
[8] = test system: SYK
[9] = test system: MAP3K6
[10] = test system: CK2a2
[11] = test system: GCN2
[12] = test system: PRP4
[13] = test system: JNK1, JNK2, JNK3; assay: KiNativ kinase profiling in A375 cells; conditions: Lys2, SEQ ID NO 67, 1.0 μM
[14] = test system: PI4KA, PI4KAP2; assay: KiNativ kinase profiling in A375 cells; conditions: ATP, SEQ ID NO 141, 1.0 μM
[15] = test system: TYK2 domain2
[16] = test system: PIK3C3
[17] = test system: AGK
[18] = test system: CAMKK2
[19] = test system: LOK
[20] = test system: MLK3
[21] = test system: RSK1 domain1
[22] = test system: WEE1
[23] = test system: FGR
[24] = test system: TLK1
[25] = test system: LATS2
[26] = test system: CDK6
[27] = test system: NEK1
[28] = test system: ZC1/HGK, ZC2/TNIK, ZC3/MINK; assay: KiNativ kinase profiling in A375 cells; conditions: Lys2, SEQ ID NO 198, 1.0 μM
[29] = test system: MAP2K1, MAP2K2; assay: KiNativ kinase profiling in A375 cells; conditions: Lys2, SEQ ID NO 79, 1.0 μM
[30] = test system: CDK2
[31] = test system: CSK
[32] = test system: PDK1
[33] = test system: PIP5K3
[34] = test system: MLKL
[35] = test system: AurB
[36] = test system: ACK
[37] = test system: PIK3CB
[38] = test system: MST4, YSK1; assay: KiNativ kinase profiling in A375 cells; conditions: Lys2, SEQ ID NO 114, 1.0 μM
[39] = test system: GSK3B
[40] = test system: JAK1
[41] = test system: NEK8
[42] = test system: TEC
[43] = test system: ZC2/TNIK
[44] = test system: IKKa
[45] = test system: MELK
[46] = test system: RSK2 domain2
[47] = test system: MARK3, MARK4; assay: KiNativ kinase profiling in A375 cells; conditions: Lys1, SEQ ID NO 94, 1.0 μM
[48] = test system: RSK1 domain2
[49] = test system: MAP2K7
[50] = test system: CDK5

Compound: CCN1CCN(Cc2ccc(NC(=O)c3ccc(C)c(Oc4cc(N)ncn4)c3)cc2C(F)(F)F)CC1 [(A-4), 3-((6-aminopyrimidin-4-yl)oxy)-N-(4-((4-ethylpiperazin-1-yl)methyl)-3-(trifluoromethyl)phenyl)-4-methylbenzamide]
- inhibition of kinase labeling [1]: 1.5%
- inhibition of kinase labeling [2]: −9.1%
- inhibition of kinase labeling [3]: −0.2%
- inhibition of kinase labeling [4]: 2.3%
- inhibition of kinase labeling [5]: 24.2%
- inhibition of kinase labeling [6]: −9.9%
- inhibition of kinase labeling [7]: −2.3%
- inhibition of kinase labeling [8]: 17.4%
- inhibition of kinase labeling [9]: −25.0%
- inhibition of kinase labeling [10]: −18.2%
- inhibition of kinase labeling [11]: 20.8%
- inhibition of kinase labeling [12]: −20.1%
- inhibition of kinase labeling [13]: 77.2%
- inhibition of kinase labeling [14]: 19.3%
- inhibition of kinase labeling [15]: −18.1%
- inhibition of kinase labeling [16]: −5.1%
- inhibition of kinase labeling [17]: −31.4%
- inhibition of kinase labeling [18]: 6.2%
- inhibition of kinase labeling [19]: 19.9%
- inhibition of kinase labeling [20]: 20.7%
- inhibition of kinase labeling [21]: −20.9%
- inhibition of kinase labeling [22]: 23.2%
- inhibition of kinase labeling [23]: 31.9%
- inhibition of kinase labeling [24]: 4.9%
- inhibition of kinase labeling [25]: −1.9%
- inhibition of kinase labeling [26]: 13.1%
- inhibition of kinase labeling [27]: −3.0%
- inhibition of kinase labeling [28]: 19.2%
- inhibition of kinase labeling [29]: −16.3%
- inhibition of kinase labeling [30]: −3.5%
- inhibition of kinase labeling [31]: 15.3%
- inhibition of kinase labeling [32]: 18.8%
- inhibition of kinase labeling [33]: 0.9%
- inhibition of kinase labeling [34]: −14.9%
- inhibition of kinase labeling [35]: −51.1%
- inhibition of kinase labeling [36]: 4.9%
- inhibition of kinase labeling [37]: 27.8%
- inhibition of kinase labeling [38]: 4.6%
- inhibition of kinase labeling [39]: 0.5%
- inhibition of kinase labeling [40]: 4.3%
- inhibition of kinase labeling [41]: −11.4%
- inhibition of kinase labeling [42]: −12.8%
- inhibition of kinase labeling [43]: 23.9%
- inhibition of kinase labeling [44]: −17.0%
- inhibition of kinase labeling [45]: −19.6%
- inhibition of kinase labeling [46]: −24.1%
- inhibition of kinase labeling [47]: −16.2%
- inhibition of kinase labeling [48]: −16.3%
- inhibition of kinase labeling [49]: −38.2%
- inhibition of kinase labeling [50]: −27.3%

Source: patent US10633348B2, “Methods to treat lymphoplasmacytic lymphoma” (Dana-Farber Cancer Institute, Inc., priority 2013, dated 2020)
